This passage reports GI50 and TGI results from PubChem BioAssay (NCI).

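These data come from cells grown in 96-well plates and exposed to compound for 48 hours at five concentrations. GI50: concentration for 50% inhibition of growth. The concentration for full growth arrest is given as TGI.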

Among the test systems are ACHN renal; K-562 leukemia; OVCAR-3 ovarian; MDA-MB-435; NCI-H23 lung; UO-31 renal; SR leukemia; SK-OV-3 ovarian; TK-10 renal; SNB-75 CNS.
Common to all, as to test: NCI tumour cell line growth inhibition, 48 h

As for `CCC#CC[C@H]1C/C=C2/C(=O)C=C[C@@H]2C/C=C\CCCC(=O)O1`, the GI50 is 0.763 µM with ACHN renal; 0.661 µM in the test on K-562 leukemia; 0.568 µM in the test with OVCAR-3 ovarian; 0.68 µM in the test on MDA-MB-435; 0.873 µM with NCI-H23 lung; 0.73 µM with UO-31 renal. Besides, the GI50 is 0.328 µM with SR leukemia, 2.36 µM with SK-OV-3 ovarian, 1.74 µM in the test on TK-10 renal and 4.38 µM in the test on SNB-75 CNS. The TGI in the test on ACHN renal is 1.56 µM; in the test with K-562 leukemia it was 4.44 µM; in the test on OVCAR-3 ovarian, 3.31 µM; with MDA-MB-435, 2.18 µM; in the test with NCI-H23 lung it was 2.03 µM; in the test with UO-31 renal it was 1.56 µM. In addition, the TGI stood at 4.26 µM with SR leukemia, 7.74 µM with SK-OV-3 ovarian, 4.59 µM with TK-10 renal and 10.8 µM in the test with SNB-75 CNS.
In the case of `Cc1cc(C)c(C(=O)CC(=O)c2cccnc2)c(C)c1`, the GI50 in the test on ACHN renal is 6.28 µM; in the test with K-562 leukemia it was 3.71 µM; in the test with OVCAR-3 ovarian, 5.78 µM; with MDA-MB-435 it was 7.48 µM; in the test on NCI-H23 lung, 11.1 µM; with UO-31 renal, 4.63 µM. The GI50 is 2.81 µM with SR leukemia, 9.04 µM with SK-OV-3 ovarian, 9.77 µM in the test with TK-10 renal and 26.6 µM in the test on SNB-75 CNS. Also, the TGI in the test with ACHN renal was greater than 100 µM; with K-562 leukemia it was greater than 100 µM; with OVCAR-3 ovarian, 77.4 µM; in the test on MDA-MB-435 it was greater than 100 µM; in the test with NCI-H23 lung, greater than 100 µM; with UO-31 renal, greater than 100 µM. Also, the TGI with SR leukemia is 33.2 µM; with SK-OV-3 ovarian, greater than 100 µM; with TK-10 renal, greater than 100 µM; in the test on SNB-75 CNS, greater than 100 µM.
Take `Nc1ncc(-c2cnn(CCO)c2)c2scc(-c3ccc(NC(=O)Nc4cccc(F)c4)cc3)c12`: the GI50 is 0.289 µM with ACHN renal; 0.0399 µM in the test on K-562 leukemia; 1.16 µM with OVCAR-3 ovarian; 0.209 µM with MDA-MB-435; 0.211 µM with NCI-H23 lung; 0.219 µM in the test with UO-31 renal. Besides, the GI50 was less than 0.01 µM with SR leukemia, 0.338 µM with SK-OV-3 ovarian, 0.394 µM in the test with TK-10 renal and 0.271 µM in the test on SNB-75 CNS. Besides, the TGI was 4.75 µM in the test on ACHN renal; 15.1 µM in the test on K-562 leukemia; 5.87 µM in the test with OVCAR-3 ovarian; 1.83 µM in the test on MDA-MB-435; 2.3 µM with NCI-H23 lung; 1.98 µM in the test on UO-31 renal. The TGI in the test with SR leukemia turned out to be 1.26 µM; in the test with SK-OV-3 ovarian it was 3.99 µM; in the test on TK-10 renal it was 3.43 µM; with SNB-75 CNS, 1.74 µM.
As to `COC(=O)Nc1nc2ccc(Oc3ccc(NC(=O)Nc4ccccc4)cc3)cc2[nH]1`, the GI50 was 0.466 µM in the test on ACHN renal; 0.105 µM with K-562 leukemia; 0.0713 µM in the test with OVCAR-3 ovarian; 0.0474 µM with MDA-MB-435; 0.545 µM in the test on NCI-H23 lung; 1.65 µM in the test on UO-31 renal. The GI50 in the test with SR leukemia is 0.0744 µM; in the test on SK-OV-3 ovarian, 0.0696 µM; with TK-10 renal, 0.787 µM; in the test with SNB-75 CNS, 0.115 µM. The TGI in the test on ACHN renal was greater than 25 µM; with K-562 leukemia it was greater than 9.63 µM; in the test with OVCAR-3 ovarian, 0.205 µM; in the test with MDA-MB-435, 0.12 µM; in the test with NCI-H23 lung, greater than 12.3 µM; with UO-31 renal, greater than 25 µM. The TGI in the test with SR leukemia was greater than 8.46 µM; in the test with SK-OV-3 ovarian, 0.3 µM; with TK-10 renal, 9.74 µM; with SNB-75 CNS, 7.15 µM.
On to `O=C(O)CC1OCC=C2CN3CCC45c6ccccc6NC4C1C2CC35` (stereo not given), for which the TGI with ACHN renal, in the test with K-562 leukemia, in the test with OVCAR-3 ovarian, in the test on MDA-MB-435, with NCI-H23 lung and in the test on UO-31 renal was greater than 100 µM each time. The TGI with SR leukemia, in the test on SK-OV-3 ovarian, in the test with TK-10 renal and in the test with SNB-75 CNS was greater than 100 µM in each case.
Take `COc1ccc2c(c1)C=C([N+](=O)[O-])C(C1OC(C)(C)OC1C1COC(C)(C)O1)O2` (stereo not given): the TGI was 6.53 µM in the test on ACHN renal; 4.88 µM in the test with K-562 leukemia; 21.8 µM in the test on OVCAR-3 ovarian; 14.8 µM with MDA-MB-435; 24.2 µM in the test on NCI-H23 lung; 26.3 µM in the test with UO-31 renal. In addition, the TGI with SR leukemia is 6.93 µM; with SK-OV-3 ovarian, 24.2 µM; with TK-10 renal, 32.4 µM; in the test with SNB-75 CNS it was 28.2 µM.
Turning to `CCc1[nH]c(=O)nc(N)c1-c1ccc(N2CCCCC2)c([N+](=O)[O-])c1`, the TGI in the test on ACHN renal, in the test on K-562 leukemia, in the test on OVCAR-3 ovarian, in the test with MDA-MB-435, in the test with NCI-H23 lung and in the test with UO-31 renal was greater than 100 µM throughout. Further, the TGI with SR leukemia, in the test with SK-OV-3 ovarian, with TK-10 renal and in the test on SNB-75 CNS was greater than 100 µM in each case.
